# Source: US20090148342A1, “Hypochlorite Technology” (priority 2007, published 2009)
# Experiments:
# Escherica coli = test: Ceramic tile disinfection with powdered hypochlorite; details: tile treated with 2% NaOCl (positive control)
# contaminated slides = test: Continuous disinfection of contaminated slides by vapor emitter; type: cell-based; details: 6000 ppm sodium hypochlorite at pH 9; contaminated slides exposed and evaluated every couple of days
# Text: Another approach is increasing the pH of the bleach solution to reduce chlorine. See in the Examples Section below. An isobaric line for constant hypochlorous acid vapor pressure can be calculated from literature values of various equilibrium constants for various concentrations of sodium hypochlorite and pH. Thus, one can maintain the performance of a desired concentration of hypochlorous acid but eliminate chlorine by increasing pH and hypochlorite concentration according to the isobaric line. […] The higher bleach concentrations also allow for smaller volumes of solution since the volume of solution required to provide a certain number of moles of hypochlorous acid decreases as the concentration increases. […] This allows much longer product lifetimes for an emitter. […] In one embodiment, the sodium hypochlorite at about pH 9 is gelled using clay.
# Klebsiella species = test: Ceramic tile disinfection with powdered hypochlorite; details: tile sprayed with 2% solution; contact time four minutes (positive control)
# Staphococcus species = test: as above; details: tile treated with 2% NaOCl (positive control)
# Dust mite allergen = details: ELISA test after treatment for 1 hour; low concentration; cited from earlier work
# [1] = Stability of thickened dilute hypochlorite at 120° F.; details: compared with thickeners of Table XXIV
structure (smiles),measurement,setting,value
"[Na+].[O-]Cl [NaOCl, sodium hypochlorite]",bacterial growth on agar plate,Escherica coli,no growth
same,duration of continuous disinfection,contaminated slides,continuous disinfection for more than a month
same,bacterial growth on agar plate,Klebsiella species,no bacterial growth
same,bacterial growth on agar plate,Staphococcus species,no growth
OCl [hypochlorite ions],reduction of dust mite allergen binding,Dust mite allergen,up to 82%
CCCCCCCCCCCCOS(=O)(=O)[O-].[Na+] [sodium lauryl sulfate],"stability of dilute hypochlorite with surfactant, by comparison",[1],less stable than Vangel ES®
